Experimental findings from patent US8754071B2 (priority 2011, dated 2014) are described below.

For one test, the target named is T1, c-kit (Homo sapiens, UniProt P10721).
T1 construct: human Mo7e cells which endogenously express c-kit; endogenous in cells; host or cells: human Mo7e cells (promegakaryocytic leukemia line), stimulated with human recombinant SCF
T1 sequence (P10721 26-976): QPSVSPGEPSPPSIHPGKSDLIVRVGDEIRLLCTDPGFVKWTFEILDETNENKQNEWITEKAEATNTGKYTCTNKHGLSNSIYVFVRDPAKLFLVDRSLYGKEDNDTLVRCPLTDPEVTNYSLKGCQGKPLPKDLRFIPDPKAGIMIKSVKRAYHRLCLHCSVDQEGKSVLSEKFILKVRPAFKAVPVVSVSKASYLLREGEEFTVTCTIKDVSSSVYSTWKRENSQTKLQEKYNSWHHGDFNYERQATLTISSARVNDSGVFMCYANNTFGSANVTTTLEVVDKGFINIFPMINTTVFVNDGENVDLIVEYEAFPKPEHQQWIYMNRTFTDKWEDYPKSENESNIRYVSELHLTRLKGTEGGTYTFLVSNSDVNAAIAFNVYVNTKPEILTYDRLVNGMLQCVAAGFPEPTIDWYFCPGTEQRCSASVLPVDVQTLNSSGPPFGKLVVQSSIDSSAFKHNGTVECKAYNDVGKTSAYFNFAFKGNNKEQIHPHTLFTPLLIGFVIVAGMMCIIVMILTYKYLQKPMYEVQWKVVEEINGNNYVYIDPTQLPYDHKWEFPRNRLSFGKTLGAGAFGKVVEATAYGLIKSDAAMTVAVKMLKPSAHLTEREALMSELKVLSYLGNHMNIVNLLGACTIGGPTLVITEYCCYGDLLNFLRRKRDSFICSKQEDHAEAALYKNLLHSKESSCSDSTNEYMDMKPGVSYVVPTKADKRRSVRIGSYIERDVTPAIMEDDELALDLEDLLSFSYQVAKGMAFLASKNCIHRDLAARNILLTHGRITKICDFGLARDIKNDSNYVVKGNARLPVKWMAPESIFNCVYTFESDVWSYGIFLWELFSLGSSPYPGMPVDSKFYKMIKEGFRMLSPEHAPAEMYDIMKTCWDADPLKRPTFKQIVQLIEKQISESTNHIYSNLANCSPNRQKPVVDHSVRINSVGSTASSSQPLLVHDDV
The test is described as follows: Mo7e cell proliferation assay (SCF dependent proliferation). To be noted: Table 1; human Mo7e cells stimulated with SCF, 48 hours, CellTiter Glo; 1% FBS; read-out: c-kit (Mo7e). Type of test: cell-based. In a few lines:
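Human Mo7e cells with endogenous c-kit, proliferation driven by SCF, 384-well format. After 48 h at 37 °C viability read by CellTiter-Glo luminescence. IC50 taken as concentration giving response halfway between baseline and maximum.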
In general terms: In ATP-based viability assays light output follows the ATP content of the culture.
Regarding `Cc1ccc(-c2noc(CN3CCOCC3)n2)cc1NC(=O)c1cnc2ccccn12` [F22, N-(2-methyl-5-(5-(morpholinomethyl)-1,2,4-oxadiazol-3-yl)phenyl)imidazo[1,2-a]pyridine-3-carboxamide], the IC50 was determined as 73 nM.
With `Cc1ccc(-c2noc(CN3CC(F)(F)C(F)(F)C3)n2)cc1NC(=O)c1cnc2ccccn12` [F42], the IC50 worked out at 13 nM.
Same read-out and setting: for `Cc1ccc(-c2noc([C@@H]3CCCN(S(C)(=O)=O)C3)n2)cc1NC(=O)c1cnc2ccccn12` [F39] the value was 49 nM; for `CCS(=O)(=O)N1CC(c2nc(-c3ccc(F)c(NC(=O)c4cnc5ccccn45)c3)no2)C1` [F28, N-(5-(5-(1-(ethylsulfonyl)azetidin-3-yl)-1,2,4-oxadiazol-3-yl)-2-fluorophenyl)imidazo[1,2-a]pyridine-3-carboxamide], 120 nM; for `[2H]c1ccn2c(C(=O)Nc3cc(-c4noc(C5CN(C(=O)OC)C5)n4)ccc3C)cnc2c1` [F97, methyl 3-(3-(3-(7-deuteroimidazo[1,2-a]pyridine-3-carboxamido)-4-methylphenyl)-1,2,4-oxadiazol-5-yl)azetidine-1-carboxylate], 44 nM.
For the compound `Cc1ccc(Nc2noc([C@@H]3CCCO3)n2)cc1NC(=O)c1cnc2ccccn12` [F72], the IC50 is 6 nM.
On the same count and under the same terms, for `Cc1ccc(-c2noc([C@H](C)N3CCC(F)(F)C3)n2)cc1NC(=O)c1cnc2ccccn12` [F51] the value was 43 nM.
`COC(=O)N1CC(c2nc(-c3ccc(C)c(NC(=O)c4cnc5cc(-c6cnn(CCN7CCOCC7)c6)ccn45)c3)no2)C1` [F63]: the IC50 is 13 nM.
In the case of `Cc1ccc(-c2noc(C3CN(S(C)(=O)=O)CCO3)n2)cc1NC(=O)c1cnc2ccccn12` (centres unmarked) [F35], the IC50 was determined as 66 nM.
With `Cc1ccc(-c2noc(NC3CCOCC3)n2)cc1NC(=O)c1cnc2cc(F)ccn12` [F81], the IC50 was determined as 84 nM.
`Cc1ccn2c(C(=O)Nc3cc(-c4noc(N5CCC(F)(F)C5)n4)ccc3C)cnc2c1` [F92]: the IC50 worked out at 21 nM.
As for `Cc1ccc(-c2noc([C@@H]3CC(F)(F)CN3S(C)(=O)=O)n2)cc1NC(=O)c1cnc2ccccn12` [F32], the IC50 was 55 nM.
For `Cc1ccn2c(C(=O)Nc3cc(-c4noc(N5CC(F)(F)C5)n4)ccc3C)cnc2c1` [F86], the IC50 was 93 nM.
With `Cc1ccc(-c2nc(N3C[C@@H]4C[C@@H](C3)O4)no2)cc1NC(=O)c1cnc2ccccn12` [F3], the IC50 turned out to be 90 nM.
Still for that read-out and setting: the value for `Cc1ccc(-c2nc(N3CCC3)no2)cc1NC(=O)c1cnc2ccccn12` [F1] was 49 nM; that for `COC(=O)N1CC(c2nc(-c3ccc(C)c(NC(=O)c4cnc5ccc(CCC#N)cn45)c3)no2)C1` [F64, methyl 3-(3-(3-(6-(2-cyanoethyl)imidazo[1,2-a]pyridine-3-carboxamido)-4-methylphenyl)-1,2,4-oxadiazol-5-yl)azetidine-1-carboxylate] was 64 nM.
Consider `Cc1ccc(-c2nc(N3C[C@@H]4C[C@H]3CO4)no2)cc1NC(=O)c1cnc2ccccn12` [F94], for which the IC50 amounted to 92 nM.
For `COC(=O)N1CC(c2nc(-c3ccc(C)c(NC(=O)c4cnc5cc(F)ccn45)c3)no2)C1` [F54], the IC50 came to 37 nM.
On to `COC(=O)N1CC(c2nc(-c3ccc(C)c(NC(=O)c4cnc5ccc(F)cn45)c3)no2)C1` [F55], for which the IC50 is 54 nM.
The same measure, in the same setting: the value for `COC(=O)N1CC(c2nc(-c3ccc(C)c(NC(=O)c4cnc5cc(C)ccn45)c3)no2)C1` [F61, methyl 3-(3-(4-methyl-3-(7-methylimidazo[1,2-a]pyridine-3-carboxamido)phenyl)-1,2,4-oxadiazol-5-yl)azetidine-1-carboxylate] was 26 nM; that for `Cc1ccc(-c2noc(CC3CCCCO3)n2)cc1NC(=O)c1cnc2ccccn12` (centres unmarked) [F44] was 17 nM.

Still in this test, the particulars now being: Table 2; human Mo7e cells stimulated with SCF, 48 hours, CellTiter Glo; 1% FBS; read-out: c-kit (Mo7e).
Consider `COC(=O)CCS(=O)(=O)N1CC(c2nc(-c3ccc(C)c(NC(=O)c4cnc5ccccn45)c3)no2)C1` [F161], for which the IC50 was 145 nM.
`Cc1ccc(-c2noc(C3CCOCC3)n2)cc1NC(=O)c1cnc2ccccn12` [F102]: the IC50 stood at 286 nM.
In the case of `Cc1ccc(-c2noc([C@@H]3CCCC(=O)N3)n2)cc1NC(=O)c1cnc2ccccn12` [F119], the IC50 is 434 nM.
Consider `CC(=O)N1CCC(c2nc(-c3ccc(C)c(NC(=O)c4cnc5ccccn45)c3)no2)C1` (centres unmarked) [F171], for which the IC50 amounted to 240 nM.
Turning to `Cc1ccc(-c2noc(C[C@H]3CCN(C(=O)OC(C)(C)C)C3)n2)cc1NC(=O)c1cnc2ccccn12` [F185], the IC50 was determined as 452 nM.
Turning to `Cc1ccc(-c2noc(CC3CCNCC3)n2)cc1NC(=O)c1cnc2ccccn12` [F289], the IC50 is 1880 nM.
In the case of `COC(=O)N1CC(c2nc(-c3ccc(C)c(NC(=O)c4cnc5ccc(C(F)(F)F)cn45)c3)no2)C1` [F233], the IC50 was determined as 218 nM.
For `COCCS(=O)(=O)N1CC(c2nc(-c3ccc(F)c(NC(=O)c4cnc5ccccn45)c3)no2)C1` [F222], the IC50 is 376 nM.
Consider `COC(=O)CS(=O)(=O)N1CC(c2nc(-c3ccc(C)c(NC(=O)c4cnc5ccccn45)c3)no2)C1` [F309], for which the IC50 was more than 10000 nM.
For the compound `Cc1ccc(-c2noc([C@H]3COCCN3)n2)cc1NC(=O)c1cnc2ccccn12` [F118], the IC50 is 936 nM.
In the case of `Cc1ccc(-c2noc(C3CN(S(=O)(=O)c4ccn(C)n4)C3)n2)cc1NC(=O)c1cnc2ccccn12` [F158], the IC50 amounted to 527 nM.
With `Cc1ccc(-c2noc(CN3CC(F)C3)n2)cc1NC(=O)c1cnc2ccccn12` [F130], the IC50 was 127 nM.
Same read-out and setting: the value for `COC(=O)N1CC(c2nc(-c3ccc(C)c(NC(=O)c4cnc5cc(C#N)ccn45)c3)no2)C1` [F235] was 181 nM.
Regarding `Cc1ccc(-c2noc([C@@H]3CNCCO3)n2)cc1NC(=O)c1cnc2ccccn12` [F123], the IC50 was found to be 527 nM.
Take `COC(=O)N1CC(c2nc(-c3ccc(C)c(NC(=O)c4cnc5ccc(CC(C)(C)O)cn45)c3)no2)C1` [F247]: the IC50 amounted to 328 nM.
On the same count and under the same terms, for `Cc1ccc(-c2noc(C3CCO3)n2)cc1NC(=O)c1cnc2ccccn12` (centres unmarked) [F263] the value was 350 nM.
For the compound `CC(=O)N1CCC[C@@H]1c1nc(-c2ccc(C)c(NC(=O)c3cnc4ccccn34)c2)no1` [F269], the IC50 came out at 1010 nM.
As for `Cc1ccc(-c2noc(CCC(=O)N3CCN(C)CC3)n2)cc1NC(=O)c1cnc2ccccn12` [F303], the IC50 came out at 4640 nM.
With `Cc1ccc(-c2noc(CC3CN(C(=O)OC(C)(C)C)C3)n2)cc1NC(=O)c1cnc2ccccn12` [F283], the IC50 stood at 1630 nM.
For the compound `Cc1ccc(-c2noc([C@H]3CCCN(S(C)(=O)=O)C3)n2)cc1NC(=O)c1cnc2ccccn12` [F209], the IC50 turned out to be 148 nM.
For the compound `Cc1ccc(-c2noc(CC3CCNC3)n2)cc1NC(=O)c1cnc2ccccn12` (centres unmarked) [F304], the IC50 stood at 5230 nM.
`Cc1ccc(-c2noc(COC(=O)NC3CN(C)C3)n2)cc1NC(=O)c1cnc2ccccn12` [F137]: the IC50 was found to be 792 nM.
As to `Cc1ccc(-c2noc([C@H]3COCCN3C(=O)OC(C)(C)C)n2)cc1NC(=O)c1cnc2ccccn12` [F117], the IC50 amounted to 629 nM.
Still for that read-out and setting: the value for `COC(=O)N1CC[C@@H](Cc2nc(-c3ccc(C)c(NC(=O)c4cnc5ccccn45)c3)no2)C1` [F204] was 200 nM; that for `Cc1ccc(-c2noc([C@@H]3CCCO3)n2)cc1NC(=O)c1cnc2ccccn12` [F297] was 2790 nM.
For `Cc1ccc(-c2noc([C@H]3CNCCO3)n2)cc1NC(=O)c1cnc2ccccn12` [F189], the IC50 is 824 nM.
With `COC(=O)N1CC(c2nc(-c3cc(NC(=O)c4cnc5ccccn45)c(C)cc3F)no2)C1` [F231], the IC50 was found to be 439 nM.
For `Cc1ccc(-c2noc(CC3CNC3)n2)cc1NC(=O)c1cnc2ccccn12` [F295], the IC50 was 2200 nM.
`Cc1ccc(-c2noc(C3CN(C(=O)OCC(F)F)C3)n2)cc1NC(=O)c1cnc2ccccn12` [F259]: the IC50 stood at 177 nM.
On to `Cc1ccc(-c2noc([C@H]3CCCN3C(=O)OC(C)(C)C)n2)cc1NC(=O)c1cnc2ccccn12` [F278], for which the IC50 worked out at 1280 nM.
`Cc1ccc(-c2noc(C3CCCCN3C)n2)cc1NC(=O)c1cnc2ccccn12` (centres unmarked) [F111]: the IC50 was 243 nM.
Take `COC(=O)N1CCOC(c2nc(-c3ccc(C)c(NC(=O)c4cnc5ccccn45)c3)no2)C1` (centres unmarked) [F194]: the IC50 stood at 105 nM.
For the compound `Cc1ccc(-c2noc(C3(NC(=O)OC(C)(C)C)COC3)n2)cc1NC(=O)c1cnc2ccccn12` [F139], the IC50 came to 139 nM.
As for `COC(=O)N1CC(c2nc(-c3ccc(C)c(NC(=O)c4cnc5ccc(CCC(=O)OC(C)(C)C)cn45)c3)no2)C1` [F241], the IC50 was found to be 115 nM.
On to `Cc1ccc(-c2noc(CCC(=O)N3CCC(F)(F)C3)n2)cc1NC(=O)c1cnc2ccccn12` [F125], for which the IC50 was found to be 426 nM.
Regarding `Cc1ccc(-c2noc(C3(C)COC3)n2)cc1NC(=O)c1cnc2ccccn12` [F128], the IC50 came out at 140 nM.
Turning to `Cc1ccc(-c2noc(C3CCCN3C(=O)OC(C)(C)C)n2)cc1NC(=O)c1cnc2ccccn12` (centres unmarked) [F106], the IC50 amounted to 935 nM.
With `CC(=O)N1CCOC(c2nc(-c3ccc(C)c(NC(=O)c4cnc5ccccn45)c3)no2)C1` (centres unmarked) [F195], the IC50 is 566 nM.
Still for that read-out and setting: the value for `Cc1ccc(-c2noc(C[C@@H]3CCCN3C(=O)OC(C)(C)C)n2)cc1NC(=O)c1cnc2ccccn12` [F211] was 106 nM.
With `Cc1nc(N2CC(c3nc(-c4ccc(C)c(NC(=O)c5cnc6ccccn56)c4)no3)C2)no1` [F244], the IC50 is 176 nM.
Regarding `Cc1ccc(-c2noc(C3C[C@@H](O)CN3)n2)cc1NC(=O)c1cnc2ccc(F)cn12` (some centres unmarked) [F305], the IC50 was 8080 nM.
Still for that read-out and setting: the value for `Cc1ccc(-c2noc([C@@H]3CCCN(C(=O)OC(C)(C)C)C3)n2)cc1NC(=O)c1cnc2ccccn12` [F186] was 291 nM.

Still in this test, the particulars now being: Table 2; values marked *: 20% FBS instead of 1% FBS; read-out: c-kit (Mo7e).
With `Cc1ccc(-c2noc(C3CCCN(C(=O)OC(C)(C)C)C3)n2)cc1NC(=O)c1cnc2ccccn12` (centres unmarked) [F282], the IC50 is 1600 nM.
On the same count and under the same terms, the value for `Cc1ccc(-c2noc([C@@H]3CCCO3)n2)cc1NC(=O)c1cnc2ccccn12` [F104] was 224 nM.
